“And” between values parts separate entries of the source, which are not always exact repeats. Identical values can stand only once.
Tested on: Rattus norvegicus
Conditions: inhalation; for NEL / LEL: Crl:CD(SD) BR
[1] = chronic, duration: 2 years, M, Kidney: Urobilinogen, Urine
[2] = reproduction developmental, duration: 9 days, F, Crl: CD BR, generation: P0, P0: General Toxicity: Whole Body: Maternal Body Weight Change + P0: General Toxicity: Whole Body: Mortality + P0: Nervous: Whole Body: …
[3] = reproduction developmental, duration: 9 days, F, Crl:CD BR, generation: P0, P0: Developmental: Uterus: Implantation + P0: Developmental: Uterus: Post-Implantation Loss + P0: Developmental: Uterus: Pre-Implantation …
[4] = reproduction developmental, duration: 9 days, F, Crl:CD BR, generation: P0, P0: Developmental: Uterus: Post-Implantation Loss + P0: Developmental: Uterus: Resorptions, Mean/Litter + P0: General Toxicity: Whole Body: …
[5] = reproduction developmental, duration: 9 days, F, generation: P0, P0: Ovary: Corpora Lutea
[6] = reproduction developmental, duration: 9 days, F, generation: P0, P0: Whole Body: Clinical Observations + P0: Whole Body: Maternal Body Weight Change
[7] = reproduction developmental, duration: 9 days, F, generation: P0, P0: Whole Body: Lethargic
[8] = subchronic, duration: 90 days, F, Crl:CD BR, General Toxicity: Whole Body: Body Weight Change + General Toxicity: Whole Body: Clinical Observations + Hepatic: Liver: Alkaline …
[9] = subchronic, duration: 90 days, F, Crl:CD BR, Nervous: Brain: Brain Weight, Absolute + Nervous: Brain: Brain Weight, Relative + Whole Body: Whole Body: Functional Observation Battery (…
[10] = subchronic, duration: 90 days, F, Liver: Alkaline Phosphatase (ALP), Blood
[11] = subchronic, duration: 90 days, M, Crl:CD BR, General Toxicity: Whole Body: Body Weight Change + General Toxicity: Whole Body: Clinical Observations + Hepatic: Liver: Liver Weight, …
[12] = subchronic, duration: 90 days, M, Crl:CD BR, Nervous: Brain: Brain Weight, Absolute + Nervous: Brain: Brain Weight, Relative + Whole Body: Whole Body: Functional Observation Battery (…
[13] = subchronic, duration: 90 days, M, Blood: Triglycerides (TRIG), Blood + Whole Body: Function Observation Battery (FOB)

SMILES: FC(Cl)C(F)(F)F (centres undefined) [2-Chloro-1,1,1,2-tetrafluoroethane]
- NEL (chronic, duration: 2 years, M, Kidney: Renal Tubular Pigment + Whole Body: Body Weight Change + Whole Body: Terminal Body Weight, Absolute): 11200 mg/m3
- LEL [1]: 279000 mg/m3
- NEL [1]: 55800 mg/m3
- LEL (chronic, duration: 2 years, M, Liver: Liver Weight, Absolute + Spleen: Spleen Weight, Absolute): 11200 mg/m3
- LOAEL (developmental, duration: 9 days, M/F, Crl: CD BR, generation: F1, F1: Developmental: Uterus: Dead Fetuses + F1: Developmental: Uterus: Fetuses, Live + F1: General Toxicity: Whole Body: Body Weight, Fetal): 279000 mg/m3
- NOAEL (developmental, duration: 9 days, M/F, Crl:CD BR, generation: F1, F1: Developmental: Head: Head Abnormalities + F1: Developmental: Whole Body: External Abnormalities + F1: Developmental: Whole Body: Live …): 27900 mg/m3 and 83700 mg/m3
- NEL (developmental, duration: 9 days, M/F, generation: F1, F1: Head: Head Abnormalities + F1: Whole Body: External Abnormalities + F1: Whole Body: Live Pups Born + F1: Whole Body: Skeletal …): 279000 mg/m3
- LEL (developmental, duration: 9 days, M/F, generation: F1, F1: Whole Body: Pup Weight Relative to Litter): 27900 mg/m3
- LOAEL (reproduction developmental, duration: 9 days, F, Crl: CD BR, generation: P0, P0: Developmental: Uterus: Implantation + P0: Developmental: Uterus: Resorptions, Early + P0: Developmental: Uterus: Resorptions, Total + P0…): 279000 mg/m3
- LOAEL [2]: 279000 mg/m3
- NOAEL [2]: 55800 mg/m3
- LOAEL [3]: 83700 mg/m3
- NOAEL [3]: 27900 mg/m3
- NOAEL (reproduction developmental, duration: 9 days, F, Crl:CD BR, generation: P0, P0: Developmental: Uterus: Implantation + P0: Developmental: Uterus: Pre-Implantation Loss + P0: Reproductive: Ovary: Corpora Lutea): 279000 mg/m3
- LOAEL [4]: 279000 mg/m3
- NOAEL [4]: 83700 mg/m3
- LEL [5]: 83700 mg/m3
- NEL [5]: 27900 mg/m3
- LEL (reproduction developmental, duration: 9 days, F, generation: P0, P0: Uterus: Implantation): 27900 mg/m3
- NEL (reproduction developmental, duration: 9 days, F, generation: P0, P0: Uterus: Implantation + P0: Uterus: Resorptions, Early + P0: Uterus: Resorptions, Total + P0: Whole Body: Maternal Body Weight Change + …): 279000 mg/m3
- NEL (reproduction developmental, duration: 9 days, F, generation: P0, P0: Uterus: Post-Implantation Loss + P0: Uterus: Pre-Implantation Loss + P0: Uterus: Resorptions, Mean/Litter + P0: Whole Body: Delivered …): 279000 mg/m3
- LEL [6]: 279000 mg/m3
- NEL [6]: 83700 mg/m3
- LEL [7]: 279000 mg/m3
- NEL [7]: 55800 mg/m3
- NEL (reproduction developmental, duration: 9 days, M/F, generation: P0, P0: Uterus: Fetuses, Dead + P0: Uterus: Fetuses, Live + P0: Whole Body: Body Weight, Fetal): 279000 mg/m3
- NEL (short-term, duration: 4 weeks, F, Adrenal: Adrenal Gland Weight, Absolute + Adrenal: Adrenal Gland Weight, Relative + Bladder: Urinary Bladder Calculus + Bladder: Urinary …): 279000 mg/m3
- NEL (short-term, duration: 4 weeks, M, Adrenal: Adrenal Gland Weight, Absolute + Adrenal: Adrenal Gland Weight, Relative + Blood: Abnormal Lymphocytes + Blood: Band Neutrophils + …): 279000 mg/m3
- LOAEL (subchronic, duration: 90 days, F, Crl:CD BR, Cardiovascular: Heart: Heart Weight, Absolute + Cardiovascular: Heart: Heart Weight, Relative + Endocrine: Adrenal: Adrenal Gland Weight, …): 83700 mg/m3
- LOAEL [8]: 279000 mg/m3
- NOAEL [8]: 83700 mg/m3
- LOAEL [9]: 83700 mg/m3
- NOAEL [9]: 27900 mg/m3
- NEL (subchronic, duration: 90 days, F, Adrenal: Adrenal Gland Weight, Absolute + Adrenal: Adrenal Gland Weight, Relative + Blood: Hematology, Unspecified + Brain: Brain Weight, …): 279000 mg/m3
- LEL [10]: 279000 mg/m3
- NEL [10]: 83700 mg/m3
- LOAEL (subchronic, duration: 90 days, M, Crl:CD BR, Cardiovascular: Heart: Heart Weight, Absolute + Cardiovascular: Heart: Heart Weight, Relative + Endocrine: Adrenal: Adrenal Gland Weight, …): 83700 mg/m3
- LOAEL [11]: 279000 mg/m3
- NOAEL [11]: 83700 mg/m3
- LOAEL [12]: 83700 mg/m3
- NOAEL [12]: 27900 mg/m3
- NEL (subchronic, duration: 90 days, M, Adrenal: Adrenal Gland Weight, Absolute + Adrenal: Adrenal Gland Weight, Relative + Blood: Hematology, Unspecified + Brain: Brain Weight, …): 279000 mg/m3
- LEL [13]: 83700 mg/m3
- NEL [13]: 27900 mg/m3
